No end group written: not given here.
Experiments:
SARS-CoV-2 [1] = assay: Prophylaxis in healthy contacts of COVID-19 patients (RT-qPCR of nasopharyngeal swabs); assay type: in vivo, human; conditions: Group II, intranasal drops 14 μg/mL daily for 6 days
Method: Healthy individuals, contacts of COVID-19 patients, were included in this study. Two groups of 25 healthy individuals exposed to a similar risk of contagion (Group I and Group II) were analyzed. Group II was treated daily, for 6 days, with the peptide identified in the Sequence Listing as SEQ ID NO: 1 as intranasal drops, at a concentration of 14 μg/mL. Nasopharyngeal swab samples were collected for SARS-CoV-2 detection by RT-qPCR (Roche). Sampling was carried out at the beginning of the study and 7 days after it began.

[2] = system: vimentin intermediate filaments; assay: Immunodetection of vimentin intermediate filaments in MDBK cells; assay type: cell-based, bovine; conditions: 100 μM, 24 hours
Method: (§1) They were then fixed and permeabilized in a solution of acetone:methanol (1:1 V/V) for 10 min at −20° C. and blocked with 1% bovine serum albumin in phosphate buffered saline for 30 min, at 37° C. Vimentin intermediate filaments were detected using a murine anti-vimentin IgG1 monoclonal antibody (4.5 μg/mL) followed by an anti-mouse antibody conjugated to fluorescein isothiocyanate (1/200). Vimentin intermediate filaments (FI) were observed distributed throughout the cytoplasm, from the perinuclear region towards one or both poles of the cell.

[3] = system: herpes simplex virus type 1 (HSV-1); assay: HSV-1 replication in primary explants of human nasal mucosa (qPCR); assay type: cell-based; conditions: 100 μM, 36 hours
Method: The replication of herpes simplex virus type 1 (HSV-1) was performed in primary explants of human nasal mucosa, according to Glorieux et al. (Glorieux et al. 2011, PLoS ONE, 6(7): e22160, doi: 10.1371/journal.pone.0022160). […] Afterwards, the cultures were washed and kept at 37° C. and 5% CO2 for 36 hours, in presence of the peptides in culture medium. The cultures were harvested, and HSV-1 was quantified by qPCR. The percentages of viral inhibition ranged from 70 to 92% in presence of the peptides (Table 5).

Influenza A H1N1 = assay type: cell-based; conditions: 50 μM; tracheo-bronchial HAE
[4] = biological target: T1, Dengue 2 virus capsid protein (Dengue virus type 2, UniProt P29990); assay: BIACORE surface plasmon resonance interaction with immobilized peptide; assay type: binding
T1 construct: with the Dengue 2 virus capsid protein
T1 sequence (P29990 1-100 limits assumed): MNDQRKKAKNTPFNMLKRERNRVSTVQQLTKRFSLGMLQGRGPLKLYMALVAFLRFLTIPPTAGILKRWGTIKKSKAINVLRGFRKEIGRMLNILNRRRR

NS1-D2 (Dengue) = biological target: T2, NS1-D2 (Dengue) (Dengue virus type 2, UniProt P29990); assay: as above; assay type: binding, Dengue virus 2
T2 construct: the non-structural protein 1 of the Dengue virus 2 (NS1-D2)
T2 sequence (P29990 776-1127 limits assumed): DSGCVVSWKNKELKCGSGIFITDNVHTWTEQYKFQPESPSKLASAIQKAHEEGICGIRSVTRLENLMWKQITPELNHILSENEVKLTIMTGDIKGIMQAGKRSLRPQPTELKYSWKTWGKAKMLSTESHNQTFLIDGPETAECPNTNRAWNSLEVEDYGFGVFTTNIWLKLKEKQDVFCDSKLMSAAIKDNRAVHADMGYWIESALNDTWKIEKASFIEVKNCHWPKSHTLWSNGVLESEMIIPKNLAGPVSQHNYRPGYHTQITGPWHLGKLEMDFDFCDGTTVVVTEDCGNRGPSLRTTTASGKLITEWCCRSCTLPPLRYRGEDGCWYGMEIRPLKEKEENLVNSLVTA

Dengue 2 virus = Dengue 2 virus replication in primary cultures of lung cells (PFU in VeroE6); assay type: cell-based; conditions: 100 μM, 48 hours
Method: The cultures were treated with the peptides for 2 or 24 hours, at concentrations of 0.01 to 100 μM before viral challenge. The medium was discarded and the cells were infected with Dengue 2 virus, at an MOI of 10 for 2 hours at 37° C. and 5% CO2. The virus was eliminated, a wash was then performed and the cultures were treated again with peptides in DMEM medium, and incubated for 48 hours at 37° C. and 5% CO2. Subsequently, the cultures were collected to assess viral performance on VeroE6 cells. For this, the cells were seeded in 24-well plates and when they reached confluence they were infected with serial 10-fold dilutions of the supernatants, incubated for 1 hour at 37° C. and 5% CO2. Next, a wash was carried out with PBS, and a layer of agar in 2× DMEM (1:1) added. The layer was allowed to solidify and incubated for 48 hours at 37° C. 5% CO2. The plates were stained with crystal violet, for the determination of the number of PFUs. The peptides inhibited between 68 and 88% of viral replication (Table 5).

[5] = system: vimentin intermediate filaments; assay: Immunodetection of vimentin intermediate filaments in VeroE6 cells; assay type: cell-based, African green monkey; conditions: 100 μM, 24 hours
Method: as §1

in vitro = conditions: pig, PK15 cells
ZIKV E protein (Zika) = biological target: T3, ZIKV E protein (Zika) (Zika virus, UniProt A0A024B7W1); assay: BIACORE surface plasmon resonance interaction with immobilized peptide; assay type: binding
T3 construct: the envelope protein of the Zika virus (ZIKV E)
T3 sequence (A0A024B7W1 291-794): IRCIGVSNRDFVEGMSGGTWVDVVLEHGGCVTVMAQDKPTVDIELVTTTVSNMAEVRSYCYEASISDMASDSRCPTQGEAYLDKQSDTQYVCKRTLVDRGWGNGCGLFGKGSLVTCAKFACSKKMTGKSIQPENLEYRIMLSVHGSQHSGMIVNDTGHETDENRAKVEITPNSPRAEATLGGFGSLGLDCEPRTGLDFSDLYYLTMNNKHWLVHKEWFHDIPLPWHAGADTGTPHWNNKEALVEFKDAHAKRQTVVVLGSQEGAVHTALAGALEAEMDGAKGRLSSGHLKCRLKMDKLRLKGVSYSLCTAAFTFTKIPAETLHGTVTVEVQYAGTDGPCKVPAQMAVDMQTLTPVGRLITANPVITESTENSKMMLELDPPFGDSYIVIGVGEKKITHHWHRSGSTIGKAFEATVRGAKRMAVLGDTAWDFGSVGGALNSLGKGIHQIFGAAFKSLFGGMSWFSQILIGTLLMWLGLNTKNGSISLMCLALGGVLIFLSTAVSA

[6] = system: Mebus strain of bovine coronavirus; assay: Inhibition of bovine coronavirus replication in MDBK cells (CPE, viral RNA RT-qPCR); assay type: cell-based; conditions: MOI 0.01, 120 hours
Method: To evaluate the antiviral effect of this peptide, bovine kidney cells known as MDBK were seeded in 24-well plates, at 280,000 cells per well, in DMEM culture medium with 10% fetal calf serum (FBS). The plates were incubated in a humid environment at 37° C. and 5% CO2. […] Once this treatment time elapsed, the culture medium was removed and the cells were infected with the Mebus strain of bovine coronavirus for 1 hour, in 200 μL of serum-free DMEM medium, at a multiplicity of infection (MOI) of 0.01 in a humid environment at 37° C. and 5% CO2. Subsequently, the volume of each well was brought up to 1 mL with serum-free DMEM medium in the presence of the peptide. Incubation for 120 hours was carried out, and cell-culture viability was evaluated by the method of metabolic reduction of MTT. To do this, the culture medium was removed. Two-hundred microliters of MTT were added to each well, and the plate was incubated for 2 to 4 hours at 37° C., 5% CO2 and 95% humidity. Subsequently, 300 μL of isobutyl alcohol were added and the plate was shaken for 1 hour. As an alternative to the MTT method, cells were stained with crystal violet (0.1%). Finally, the absorbance in each well was determined at 570 nm in a plate reader (Amersham). The antiviral effect was expressed as percent of inhibition of the cytopathic effect (CPE) (FIG. 1A) and inhibition of viral RNA (FIG. 1B) by RT-qPCR.

SARS-CoV-2 [7] = conditions: 96 h, 50 μM
Protein N (SARS-CoV-2) = Protein N (SARS-CoV-2) (Severe acute respiratory syndrome coronavirus 2, UniProt P0DTC9); assay: BIACORE surface plasmon resonance interaction with immobilized peptide; assay type: binding

Sequence: RVTQMNLNDRLASLYDKV [SEQ ID NO: 1]
- SARS-CoV-2 positive cases (%) (SARS-CoV-2 [1]; Day 7): 3.9%
- SARS-CoV-2 positive cases/Total (SARS-CoV-2 [1]; Day 7): 1/25
- SARS-CoV-2 positive cases (%) (SARS-CoV-2 [1]; Day of onset): 0%
- SARS-CoV-2 positive cases/Total (SARS-CoV-2 [1]; Day of onset): 0/25
- damage to cell integrity after treatment [2]: no damage to cell integrity was observed
- Herpes simplex HSV-1 Inhib. % [3]: 92%
- Influenza A H1N1 Inhib. % (Influenza A H1N1): 86%
- Kd [4]: 1.67 nM
- Rmax [4]: 409 RU
- interaction [4]: concentration dependent interaction
- kd [4]: 0.000413 s⁻¹
- kon ([4]; read-out: ka): 247000 M⁻¹ s⁻¹
- Kd (NS1-D2 (Dengue)): 769 nM
- Rmax (NS1-D2 (Dengue)): 1.86 RU
- interaction (NS1-D2 (Dengue)): showed interaction
- kd (NS1-D2 (Dengue)): 1.02e-05 s⁻¹
- kon (NS1-D2 (Dengue); read-out: ka): 13.3 M⁻¹ s⁻¹
- Dengue 2 Inhib. % (Dengue 2 virus): 81%
- damage to cell integrity after treatment [5]: no damage to cell integrity was observed
- CC50 at 96 h (in vitro): > 400000 nM
- Kd (ZIKV E protein (Zika)): 1590 nM
- Rmax (ZIKV E protein (Zika)): 2.11 × 10^4 RU
- interaction (ZIKV E protein (Zika)): showed interaction
- kd (ZIKV E protein (Zika)): 0.00154 s⁻¹
- kon (ZIKV E protein (Zika); read-out: ka): 965 M⁻¹ s⁻¹
- antiviral effect on bovine coronavirus infection (inhibition of CPE, viral RNA) [6]: exerts an antiviral effect
- Inhibition % (SARS-CoV-2 [7]): 83.3%
- interaction (signal RU) (Protein N (SARS-CoV-2); 10-200 nM): significant increase in signal
- Kd (Protein N (SARS-CoV-2); analyte 10-200 nM): 3.58 nM
- kd (Protein N (SARS-CoV-2); analyte 10-200 nM): 0.000972 s⁻¹
- Rmax (Protein N (SARS-CoV-2); analyte 10-200 nM, biotinylated peptide on SA chip): 329 RU
- kon (Protein N (SARS-CoV-2); analyte 10-200 nM, read-out: ka): 271000 M⁻¹ s⁻¹
